These results are taken from US4283538A, “Novel triarylmethane compounds” (Polaroid Corporation, priority 1979, dated 1981).

Holding throughout (format): physicochemical
Series [1] in a line: Transmission densities (R, G, B) of image-receiving components containing the dye before and after bleaching with aqueous 1 N KOH. To be noted: for Transmission Density After Bleaching, B / Transmission Density Before Bleaching, B: blue; for Transmission Density After Bleaching, G / Transmission Density Before Bleaching, G: green; for Transmission Density After Bleaching, R / Transmission Density Before Bleaching, R: red. From the text: Using appropriate solvents, samples of the dye compounds prepared in Examples 12, 13, 24 and 26 were incorporated into the image-receiving layer 3 of four image-receiving components comprising the structure set forth below by mixing the solution of each compound with a solution of the graft copolymer and coating this mixture on top of the timing layer to complete each of the image-receiving components.
A transparent 4 mil polyethylene terephthalate film base coated with, in succession:
1. as a polymeric acid layer, a mixture of about 9 parts of a partial butyl ester of polyethylene/maleic anhydride copolymer and 1 part of polyvinyl butyral coated at a coverage of about 2,500 mgs./ft.^2 ;
2. a timing layer containing a 14:1 ratio of a 60-30-4-6 tetrapolymer of butylacrylate, diacetone acrylamide, styrene and methacrylic acid and polyvinyl alcohol at a coverage of 500 mgs./ft.^2 ;
3. a graft copolymer of 4-vinylpyridine and vinylbenzyltrimethylammoniumchloride grafted on hydroxyethyl cellulose in a weight ratio of 2.2/1/2.2, respectively, coated at a coverage of 300 mgs./ft.^2 to provide an imagereceiving layer and containing the selected dye compound at a coverage of 22 mgs./ft.^2.
Each of the image-receiving components containing the respective dye compounds were placed on a piece of gelatin coated Mylar, and the transmission densities for red (R), green (G) and blue (B) were recorded on a transmission densitometer. Then several drops of aqueous 1 N KOH were added to each gelatin sheet, and the image-receiving components were lightly pressed against the gelatin sheets to "bleach" the dye compounds. […]

Series [2] in a line: Bleaching rate (T1/2) in pH=12 aqueous buffer, visible spectrometer. The settings on record: selected wavelength for optical density recording, pH=12 buffer. On the procedure:
Also, the "bleaching" rates for the compounds of Examples 21, 23 and 24 were determined at pH=12 in terms of T1/2. By T1/2 is meant the time measured for one-half of the colored compound to decolorize. In making these determinations, a cell containing about 3 ml of pH=12 buffer (aqueous) was placed in a visible spectrometer. A sample of each compound was dissolved in methanol, and a small amount (less than 0.1 cc) of each solution was injected into the buffer. The optical densities were then recorded at a selected wavelenth value to determine T1/2.

The nature of series [3]: Decolorization of methanol solution added to aqueous 1 N KOH.
A short description of series [4]: Persistence of colorlessness on acidification to pH 1 after decolorization in aqueous 1 N sodium hydroxide. The settings on record: methanol solution decolorized with aqueous 1 N NaOH, then aqueous HCl to pH 1. From the text:
As discussed above and also in the aforementioned application, the subject compounds have the ability to decolorize completely and irreversibly in base by undergoing an irreversible cleavage reaction within a predetermined time at a predetermined pH to give a new colorless compound which remains colorless at the pH's normally encountered during processing subsequent to "bleaching" so that the new compound may be retained in a photographic film unit, e.g., a photosensitive element without the possibility of color reappearing in time. In this regard, samples of the compounds prepared in Examples 24 and 26 above were dissolved in a small amount of methanol, and aqueous 1 N sodium hydroxide was added to each solution to decolorize the compound.

The mark [5] stands for this setting: 15 to 60 seconds after aqueous 1 N KOH.
Setting [6] is: dye 22 mgs./ft.^2 in image-receiving layer.
[7] abbreviates: dye 22 mgs./ft.^2 in image-receiving layer, densitometer set at 0.00 with two gelatin coated mylar.
The mark [8] stands for this setting: coating stored for over 3 months.
Where [9] appears, read: coating stored for over 3 months, bleaching time about 3 minutes, aqueous 1 N KOH.

For the compound `COC1=CC(=C(c2ccc(N3CCOCC3)cc2)c2ccccc2S(=O)(=O)N(C)C(=O)OCCS(C)(=O)=O)C=C(OC)C1=O` [Example 12], in series [1] (setting [5]), the “Transmission Density After Bleaching, B” value is “.00”; the “Transmission Density After Bleaching, G” value is “.01”; the “Transmission Density After Bleaching, R” value is reported as “.02”. Also, in series [1] (setting [6]), the “Transmission Density Before Bleaching, B” value is “.45” and the “Transmission Density Before Bleaching, G” value is “.31”. Besides, in series [1] (setting [7]), the “Transmission Density Before Bleaching, R” value was “.00”.
As to `COC1=CC(=C(c2cc3c4c(c2)CCCN4CCC3)c2ccccc2S(=O)(=O)N(C)C(=O)OCCS(C)(=O)=O)C=C(OC)C1=O` [Example 13], in series [1] (setting [5]), the “Transmission Density After Bleaching, B” value is given as “.00”; the “Transmission Density After Bleaching, G” value was “.01”; the “Transmission Density After Bleaching, R” value is reported as “.01”. Further, in series [1] (setting [6]), the “Transmission Density Before Bleaching, B” value is given as “.09” and the “Transmission Density Before Bleaching, G” value is reported as “.32”. Moreover, the “Transmission Density Before Bleaching, R” value in series [1] (setting [7]) was “.21”.
In the case of `COC1=CC(=C(c2cc(OC)c(O)c(OC)c2)c2ccccc2S(=O)(=O)N(C)C(=O)OCCS(C)(=O)=O)C=C(OC)C1=O` [Example 21], the “Wavelength (λmax-nm)” value in series [2] is reported as 640 nm.
As for `CN(C(=O)OCCS(C)(=O)=O)S(=O)(=O)c1ccccc1C(=C1C=C(C(O)(C(F)(F)F)C(F)(F)F)C(=O)c2ccccc21)c1cc2c3c(c1)CCCN3CCC2` [Example 26], in series [1] (setting [8]), the “Transmission Density Before Bleaching, B” value is recorded as “.05”; the “Transmission Density Before Bleaching, G” value was “.06”; the “Transmission Density Before Bleaching, R” value is “.19”. Further, in series [1] (setting [9]), the “Transmission Density After Bleaching, B” value was “.02”; the “Transmission Density After Bleaching, G” value was “.00”; the “Transmission Density After Bleaching, R” value is “.02”. Moreover, the “time to decolorize (in words)” value in series [3] is “substantially instantaneously”. For the same compound, in series [4], the “color after decolorization and acidification to pH 1” value was “remained colorless even at pH 1”.
With `CC1=CC(=C(c2cc(C)c(O)c(C)c2)c2ccccc2S(=O)(=O)N(C)C(=O)OCCS(C)(=O)=O)C=C(C)C1=O` [Example 24], in series [1] (setting [5]), the “Transmission Density After Bleaching, B” value is on record as “.00”; the “Transmission Density After Bleaching, G” value is “.00”; the “Transmission Density After Bleaching, R” value is on record as “.01”. In series [1] (setting [6]), the “Transmission Density Before Bleaching, B” value is on record as “.40” and the “Transmission Density Before Bleaching, G” value is listed as “.00”. The “Transmission Density Before Bleaching, R” value in series [1] (setting [7]) is “.00”. In series [2], the “Wavelength (λmax-nm)” value amounted to 590 nm. Moreover, in series [4], the “color after decolorization and acidification to pH 1” value was “remained colorless even at pH 1”.
With `CC(=O)N(C)S(=O)(=O)c1ccccc1C(=C1C=C(C(O)(C(F)(F)F)C(F)(F)F)C(=O)c2ccccc21)c1cc2c3c(c1)CCCN3CCC2` [Example 9], the time to decolorize result in series [3] is recorded as “approximately 5 seconds”.
As to `COC1=CC(=C(c2cc(OC)c(O)c(OC)c2)c2ccccc2S(=O)(=O)N(C)C(C)=O)C=C(OC)C1=O` [Example 23], the “Wavelength (λmax-nm)” value in series [2] was 640 nm.
